Measured values: PMC5994915 (Bioorganic & medicinal chemistry, 2017)

Legend:
[1] = tested on: class IIa HDACs in HEL cells; conditions: Boc-Lys (triflouroacetyl)-AMC substrate, n ≥ 2
[2] = tested on: class I HDACs in HEL cells; conditions: Boc-Lys (acetyl)-AMC substrate, n ≥ 2

| Compound | HDAC class IIa cellular IC50 [1] | HDAC class I cellular IC50 [2] |
| --- | --- | --- |
| Nc1ccccc1NC(=O)c1ccc(NC(=O)CN2C(=O)C3(OCCCO3)c3cc(Br)ccc32)cc1 [9a, N-(2-aminophenyl)-4-(2-(5-bromo-2-oxospiro[indoline-3,2′-[1,3]dioxan]-1-yl)acetamido)ben-zamide] | not active | not active |
| Nc1ccc(-c2cccs2)cc1NC(=O)c1ccc(CNC(=O)CN2C(=O)C3(OCCCO3)c3cc(Cl)ccc32)cc1 [23a, N-(2-Amino-5-(thiophen-2-yl)phenyl)-4-((2-(5-chloro-2-oxospiro[indoline-3,2′-[1,3]dioxan]-1-yl)acetamido)methyl)benza-mide] | not active | not active |
